Details: Brillouin light scattering

CCC(C)(C)OC [2-methoxy-2-methylbutane]
Details	speed of sound [m/s]
443.15 K, 2500 kPa, Liquid	537.57
443.15 K, 4000 kPa, Liquid	561.49
443.15 K, 5500 kPa, Liquid	584.45
443.15 K, 7000 kPa, Liquid	606.46
443.15 K, 8500 kPa, Liquid	627.51
443.15 K, 10000 kPa, Liquid	647.61
453.15 K, 660 kPa, Liquid	468.81
453.15 K, 2500 kPa, Liquid	495.6
453.15 K, 4000 kPa, Liquid	520.74
453.15 K, 5500 kPa, Liquid	544.94
453.15 K, 7000 kPa, Liquid	568.2
453.15 K, 8500 kPa, Liquid	590.53
453.15 K, 10000 kPa, Liquid	611.92
463.15 K, 820 kPa, Gas	194.03
463.15 K, 820 kPa, Liquid	424.99
463.15 K, 2500 kPa, Liquid	453.48
463.15 K, 4000 kPa, Liquid	479.86
463.15 K, 5500 kPa, Liquid	505.34
463.15 K, 7000 kPa, Liquid	529.91
463.15 K, 8500 kPa, Liquid	553.58
463.15 K, 10000 kPa, Liquid	576.34
473.15 K, 1010 kPa, Gas	187.27
473.15 K, 1010 kPa, Liquid	380.39
473.15 K, 4000 kPa, Liquid	438.87
473.15 K, 5500 kPa, Liquid	465.66
473.15 K, 7000 kPa, Liquid	491.59
473.15 K, 8500 kPa, Liquid	516.66
473.15 K, 10000 kPa, Liquid	540.87
483.15 K, 1240 kPa, Gas	179.96
483.15 K, 1240 kPa, Liquid	334.95
483.15 K, 4000 kPa, Liquid	397.75
483.15 K, 5500 kPa, Liquid	425.9
488.15 K, 1370 kPa, Gas	175.42
488.15 K, 1370 kPa, Liquid	311.9
493.15 K, 1520 kPa, Gas	169.9
493.15 K, 1520 kPa, Liquid	288.63
493.15 K, 4000 kPa, Liquid	356.51
493.15 K, 5500 kPa, Liquid	386.06
498.15 K, 1680 kPa, Gas	163.13
498.15 K, 1680 kPa, Liquid	265.12
498.15 K, 4000 kPa, Liquid	335.85
498.15 K, 5500 kPa, Liquid	366.12
503.15 K, 1860 kPa, Gas	154.8
503.15 K, 1860 kPa, Liquid	241.38
503.15 K, 4000 kPa, Liquid	315.16
503.15 K, 5500 kPa, Liquid	346.15
508.15 K, 2060 kPa, Gas	144.62
508.15 K, 2060 kPa, Liquid	217.4
508.15 K, 4000 kPa, Liquid	294.43
508.15 K, 5500 kPa, Liquid	326.16
513.15 K, 2270 kPa, Gas	132.28
513.15 K, 2270 kPa, Liquid	193.18
513.15 K, 4000 kPa, Liquid	273.68
513.15 K, 5500 kPa, Liquid	306.15
518.15 K, 2500 kPa, Gas	117.47
518.15 K, 2500 kPa, Liquid	168.7
518.15 K, 4000 kPa, Liquid	252.89
518.15 K, 5500 kPa, Liquid	286.12
523.15 K, 2760 kPa, Gas	99.85
523.15 K, 2760 kPa, Liquid	143.98
523.15 K, 4000 kPa, Liquid	232.08
523.15 K, 5500 kPa, Liquid	266.07
537.15 K, 5000 kPa, Fluid (supercritical or subcritical phases)	228.75
537.15 K, 6000 kPa, Fluid (supercritical or subcritical phases)	279.45
538.63 K, 4000 kPa, Fluid (supercritical or subcritical phases)	166.74
540.07 K, 7000 kPa, Fluid (supercritical or subcritical phases)	308.01
547.15 K, 5000 kPa, Fluid (supercritical or subcritical phases)	173.14
547.15 K, 6000 kPa, Fluid (supercritical or subcritical phases)	231.15
548.05 K, 7000 kPa, Fluid (supercritical or subcritical phases)	273.71
548.23 K, 4000 kPa, Fluid (supercritical or subcritical phases)	93.78
557.15 K, 5000 kPa, Fluid (supercritical or subcritical phases)	137.45
557.15 K, 6000 kPa, Fluid (supercritical or subcritical phases)	185.53
557.95 K, 4000 kPa, Fluid (supercritical or subcritical phases)	114.59
558.89 K, 7000 kPa, Fluid (supercritical or subcritical phases)	235.39
567.15 K, 5000 kPa, Fluid (supercritical or subcritical phases)	122.01
567.15 K, 6000 kPa, Fluid (supercritical or subcritical phases)	152.32
567.35 K, 4000 kPa, Fluid (supercritical or subcritical phases)	139.87
568.4 K, 7000 kPa, Fluid (supercritical or subcritical phases)	200.04
577 K, 5000 kPa, Fluid (supercritical or subcritical phases)	139.01
577 K, 6000 kPa, Fluid (supercritical or subcritical phases)	140.84
577.42 K, 7000 kPa, Fluid (supercritical or subcritical phases)	176.29
577.5 K, 4000 kPa, Fluid (supercritical or subcritical phases)	156.64
586.07 K, 7000 kPa, Fluid (supercritical or subcritical phases)	158.23
586.09 K, 6000 kPa, Fluid (supercritical or subcritical phases)	146.23
586.58 K, 4000 kPa, Fluid (supercritical or subcritical phases)	172.49
586.8 K, 5000 kPa, Fluid (supercritical or subcritical phases)	155.55
597.62 K, 7000 kPa, Fluid (supercritical or subcritical phases)	156.64
598.22 K, 6000 kPa, Fluid (supercritical or subcritical phases)	159.43
599.01 K, 5000 kPa, Fluid (supercritical or subcritical phases)	172.16
599.67 K, 4000 kPa, Fluid (supercritical or subcritical phases)	188.97
607.67 K, 7000 kPa, Fluid (supercritical or subcritical phases)	165.36
608.42 K, 6000 kPa, Fluid (supercritical or subcritical phases)	174.49
609.14 K, 5000 kPa, Fluid (supercritical or subcritical phases)	187.44
610.53 K, 4000 kPa, Fluid (supercritical or subcritical phases)	204.31
616.46 K, 7000 kPa, Fluid (supercritical or subcritical phases)	175.98
617.13 K, 6000 kPa, Fluid (supercritical or subcritical phases)	187.48
618.08 K, 5000 kPa, Fluid (supercritical or subcritical phases)	199.99
618.29 K, 4000 kPa, Fluid (supercritical or subcritical phases)	213.66
626.75 K, 7000 kPa, Fluid (supercritical or subcritical phases)	188.95
627.35 K, 6000 kPa, Fluid (supercritical or subcritical phases)	199.55
628.15 K, 5000 kPa, Fluid (supercritical or subcritical phases)	210.83
629.14 K, 4000 kPa, Fluid (supercritical or subcritical phases)	222.93
636.88 K, 6000 kPa, Fluid (supercritical or subcritical phases)	207.42
636.88 K, 7000 kPa, Fluid (supercritical or subcritical phases)	199.92
638.41 K, 5000 kPa, Fluid (supercritical or subcritical phases)	218.7
639.77 K, 4000 kPa, Fluid (supercritical or subcritical phases)	229.85
645.57 K, 5000 kPa, Fluid (supercritical or subcritical phases)	222.56
645.57 K, 6000 kPa, Fluid (supercritical or subcritical phases)	213.28
645.57 K, 7000 kPa, Fluid (supercritical or subcritical phases)	204.49
646.51 K, 4000 kPa, Fluid (supercritical or subcritical phases)	233.5
656.29 K, 5000 kPa, Fluid (supercritical or subcritical phases)	226.62
656.29 K, 7000 kPa, Fluid (supercritical or subcritical phases)	208.95
656.31 K, 6000 kPa, Fluid (supercritical or subcritical phases)	217.14
657.59 K, 4000 kPa, Fluid (supercritical or subcritical phases)	237.14
669.94 K, 5000 kPa, Fluid (supercritical or subcritical phases)	230.37
669.94 K, 7000 kPa, Fluid (supercritical or subcritical phases)	211.48
669.98 K, 6000 kPa, Fluid (supercritical or subcritical phases)	220.01
670.97 K, 4000 kPa, Fluid (supercritical or subcritical phases)	240.91
680.25 K, 5000 kPa, Fluid (supercritical or subcritical phases)	233.53
680.27 K, 4000 kPa, Fluid (supercritical or subcritical phases)	242.88
680.27 K, 7000 kPa, Fluid (supercritical or subcritical phases)	215.49
680.32 K, 6000 kPa, Fluid (supercritical or subcritical phases)	223.86

Reference: the NIST ThermoML archive (doi:10.1016/j.fluid.2015.10.026)
